The target in one assay is Ba/F3_KRAS^G12D cells (Homo sapiens, UniProt P01116, G12D, cells depend on it). As to the kind of experiment: Ba/F3 KRAS G12D cell proliferation assay (CellTiter-Glo). It counts as cell-based. The conditions noted are these: treated for 3 days, cell-titer Glo, cell growth inhibition, read-out: BaF3_KRAS^G12D IC50. On the procedure: Ba/F3_KRAS^G12D cells (KYinno, China) were generated by transducing Ba/F3 parental cells with the recombinant KRAS^G12D lentivirus and followed by 1 ug/mL of puromycin selection and IL3 depletion. […] Cells were seeded at a density of 5×10^3 per well into 96-well plate and incubated overnight. Serial diluted compounds were added to each well. Cells were treated with the compounds for 3 days, after which cell-titer Glo reagent (Promega #G7572) was used to assess cell proliferation. The luminescence signal was then collected on Tecan Spark plate reader. […] Cell growth inhibition of IC50 is calculated with the equation of Y=Bottom+(Top−Bottom)/(1+10^((Log IC50−X)*Hill Slope))
Sequence of Ba/F3_KRAS^G12D cells (P01116 whole entry G12D): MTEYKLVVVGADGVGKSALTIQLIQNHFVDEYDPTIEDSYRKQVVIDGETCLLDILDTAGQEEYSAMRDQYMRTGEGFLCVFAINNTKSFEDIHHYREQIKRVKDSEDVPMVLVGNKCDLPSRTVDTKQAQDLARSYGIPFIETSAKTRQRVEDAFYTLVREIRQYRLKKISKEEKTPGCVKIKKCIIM

For assay [1], the target named is recombinant human KRAS^G12D protein (Homo sapiens, UniProt P01116, G12D). As to the kind of experiment: Temperature-dependent Fluorescence (TdF) KRAS G12D protein binding assay. The conditions noted are these: 6 μM KRAS^G12D protein, 10 μM compound, Sypro Orange; Kd calculated from the fluorescent shift. On the procedure: The Temperature-dependent Fluorescence (TdF) assay was used to analyze binding affinity of compound to recombinant human KRAS^G12D protein. The TdF assay was conducted in the 96-well-based real-time fluorescence plate reader (ABI 7500 or Roche LightCycler 480). Fluorescent dye Sypro Orange (Sigma) was used to monitor the protein folding-unfolding transition. Protein-compound binding was gauged by the shift in the unfolding transition temperature (ΔTm) acquired with and without compound. Each reaction sample consists of 6 μM KRAS^G12D Protein, 10 μM compound, and Sypro Orange dye (in 1% DMSO) in 20 μL reaction buffer (25 mM HEPES pH 7.5, 150 mM NaCl, 10 mM MgCl2). […] Binding affinity (Kd value) was calculated based on the degree of fluorescent shift of the protein with and without compound.
Sequence of recombinant human KRAS^G12D protein (P01116 1-188 isoform P01116-2 G12D): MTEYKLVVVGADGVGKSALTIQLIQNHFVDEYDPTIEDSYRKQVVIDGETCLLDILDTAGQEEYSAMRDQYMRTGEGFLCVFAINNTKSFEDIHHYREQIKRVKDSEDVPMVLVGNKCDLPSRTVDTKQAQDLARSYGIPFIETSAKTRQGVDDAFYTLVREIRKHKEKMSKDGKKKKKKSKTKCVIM

Consider 20 compounds from US20230242544A1, “QUINAZOLINE COMPOUNDS, PREPARATION METHODS AND USES THEREOF” (INVENTISBIO CO., LTD., priority 2020, published 2023).

The structures appear in SMILES notation.

In general, Kd refers to the constant that tells how readily two partners part at equilibrium. On to `CC(C)N1CC(Nc2nc(N3C[C@@H](C)NC[C@@H]3C)c3cc(Cl)c(-c4cc(O)cc5ccccc45)c(F)c3n2)C1` [Compound 49], for which, on Ba/F3_KRAS^G12D cells, the GI50 was greater than 5 µM. For the same compound, the Kd in assay [1] was greater than 5 µM.
With `CN1CC(COc2nc(N3CC4CCC(C3)N4)c3cc(Cl)c(-c4cc(O)cc5ccccc45)c(F)c3n2)CC(F)(F)C1` (stereo not shown) [Compound 50], the GI50 at Ba/F3_KRAS^G12D cells was in the range of 0.5 to 5 µM. In assay [1], the Kd was 0.5 to 5 µM.
For the compound `CN(C)CC1CN(c2nc(N3CC4CCC(C3)N4)c3cc(Cl)c(-c4cc(O)cc5ccccc45)c(F)c3n2)C1` [Compound 51], the GI50 at Ba/F3_KRAS^G12D cells is 0.5 to 5 µM. Moreover, the Kd in assay [1] is greater than 5 µM.
The like results for `CN(C)C1CCN(c2nc(N3CC4CCC(C3)N4)c3cc(Cl)c(-c4cc(O)cc5ccccc45)c(F)c3n2)C1` (stereo not shown) [Compound 52] were, in that order, 0.5 to 5 µM and greater than 5 µM.
As to `CN(C)CC1CCN(c2nc(N3CC4CCC(C3)N4)c3cc(Cl)c(-c4cc(O)cc5ccccc45)c(F)c3n2)CC1` [Compound 53], the GI50 on Ba/F3_KRAS^G12D cells is 0.5 to 5 µM. In addition, in assay [1], the Kd was greater than 5 µM.
Taken in the same sequence, the figures for `CN(C)C1CCN(c2nc(N3CC4CCC(C3)N4)c3cc(Cl)c(-c4cc(O)cc5ccccc45)c(F)c3n2)CC1` [Compound 54] were 0.5 to 5 µM and greater than 5 µM.
The like results for `N#Cc1cc2c(N3CC4CCC(C3)N4)nc(OC[C@@]34CCCN3C[C@H](F)C4)nc2c(F)c1-c1cc(O)cc2cccc(Cl)c12` [Compound 55] were, in that order, less than 0.5 µM and less than 0.5 µM.
The like results for `CN(C)C1CCCN(c2nc(N3CC4CCC(C3)N4)c3cc(Cl)c(-c4cc(O)cc5ccccc45)c(F)c3n2)C1` (stereo not shown) [Compound 56] were, in that order, 0.5 to 5 µM and greater than 5 µM.
`CN1CCOCC1COc1nc(N2CC3CCC(C2)N3)c2cc(Cl)c(-c3cc(O)cc4ccccc34)c(F)c2n1` (stereo not shown) [Compound 57]: on Ba/F3_KRAS^G12D cells, the GI50 was 0.5 to 5 µM. The Kd in assay [1] is greater than 5 µM.
On to `Oc1cc(-c2c(Cl)cc3c(N4CC5CCC(C4)N5)nc(OC[C@@]45CCCN4C[C@H](F)C5)nc3c2F)c2c(Cl)cccc2c1` [Compound 58], for which the GI50 at Ba/F3_KRAS^G12D cells is less than 0.5 µM. In addition, the Kd in assay [1] was less than 0.5 µM.
With `Oc1cc(-c2c(Cl)cc3c(N4CC5CCC(C4)N5)nc(OCCN4CCOCC4)nc3c2F)c2ccccc2c1` [Compound 59], the GI50 at Ba/F3_KRAS^G12D cells was in the range of 0.5 to 5 µM. Also, the equilibrium dissociation constant (Kd) in assay [1] was greater than 5 µM.
As for `CN1CCC(c2nc(N3CC4CCC(C3)N4)c3cc(Cl)c(-c4cc(O)cc5ccccc45)c(F)c3n2)CC1` [Compound 60], at Ba/F3_KRAS^G12D cells, the GI50 was in the range of 0.5 to 5 µM. Besides, the Kd in assay [1] is greater than 5 µM.
For `Oc1cc(-c2c(Cl)cc3c(N4CC5CCC(C4)N5)nc(OCC45CCCN4CCC5)nc3c2F)c2c(Cl)cccc2c1` [Compound 61], the GI50 on Ba/F3_KRAS^G12D cells was in the range of 0.5 to 5 µM. For the same compound, the Kd in assay [1] was less than 0.5 µM.
Taken in the same sequence, the figures for `Fc1c(-c2cccc3cccc(Cl)c23)c(Cl)cc2c(N3CC4CCC(C3)N4)nc(OCC34CCCN3CCC4)nc12` [Compound 64] were less than 0.5 µM and 0.5 to 5 µM.
The like results for `Oc1cc(-c2c(Cl)cc3c(N4CC5CCC(C4)N5)nc(OCC45CCCN4CC(F)(F)C5)nc3c2F)c2c(Cl)cccc2c1` (stereo not shown) [Compound 65] were, in that order, 0.5 to 5 µM and less than 0.5 µM.
Taken in the same sequence, the figures for `Nc1cccc(F)c1-c1c(Cl)cc2c(N3C4CCC3CNC4)nc(OCC34CCCN3CCC4)nc2c1F` [Compound 66] were greater than 5 µM and greater than 5 µM.
For `Oc1cccc(F)c1-c1c(Cl)cc2c(N3C4CCC3CNC4)nc(OCC34CCCN3CCC4)nc2c1F` [Compound 67], the GI50 on Ba/F3_KRAS^G12D cells is greater than 5 µM. The Kd in assay [1] was 0.5 to 5 µM.
The like results for `Fc1c(-c2cccc3ccccc23)c(Cl)cc2c(N3CC4CCC(C3)N4)nc(OCC34CCCN3CCC4)nc12` [Compound 69] were, in that order, 0.5 to 5 µM and 0.5 to 5 µM.
As to `Oc1ccc2ccccc2c1-c1c(Cl)cc2c(N3CC4CCC(C3)N4)nc(OCC34CCCN3CCC4)nc2c1F` [Compound 70], the GI50 on Ba/F3_KRAS^G12D cells was greater than 5 µM. The Kd in assay [1] is 0.5 to 5 µM.
Taken in the same sequence, the figures for `Fc1c(-c2cccc3cccc(Cl)c23)c(Cl)cc2c(N3C4CCC3CNC4)nc(OCC34CCCN3CCC4)nc12` [Compound 72] were 0.5 to 5 µM and 0.5 to 5 µM.
